Here are results for 22 compounds from patent US7994172B2, “[1H-pyrazolo[3, 4-D]pyrimidin-4-yl]-piperidine or -piperazine compounds as serine-theoronine kinase modulators (P70s6k, Atk1 and Atk2) for the treatment of immunological, inflammatory and proliferative diseases” (Exelixis, Inc., priority 2004, dated 2011).

Holding throughout (assay type): biochemical
For experiment [1], the target named is T1, human Akt1 kinase (kinase domain residues R144-A480, activated with PDK1) (Homo sapiens, UniProt P31749).
T1 construct: made in house
T1 sequence (P31749 144-480): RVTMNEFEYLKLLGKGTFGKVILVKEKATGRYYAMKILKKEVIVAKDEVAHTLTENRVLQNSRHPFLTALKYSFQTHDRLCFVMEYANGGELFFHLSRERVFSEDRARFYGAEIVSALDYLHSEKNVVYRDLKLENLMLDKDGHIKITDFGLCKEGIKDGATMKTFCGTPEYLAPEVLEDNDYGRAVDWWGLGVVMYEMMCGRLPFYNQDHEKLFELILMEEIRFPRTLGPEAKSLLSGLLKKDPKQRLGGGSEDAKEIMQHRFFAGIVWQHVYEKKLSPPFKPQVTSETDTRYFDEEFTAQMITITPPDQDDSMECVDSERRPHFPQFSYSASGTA
The experiment can be described thus: Akt1 kinase assay, Luciferase-Coupled Chemiluminescent Kinase assay (LCCA). Conditions: 1 μM ATP, 1.3 nM Akt1; read-out: Akt-1 inhibition IC50. In outline:
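Baculovirus-expressed PDK1-activated Akt1 kinase domain (R144-A480), 1.3 nM, with 5 μM crosstide and 1 μM ATP in Tris pH 7.5 with MgCl2/MnCl2, 3 h at ambient temperature. Remaining ATP read by luciferase-luciferin chemiluminescence; 10-point IC50 from four-parameter fit.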

In experiment [2] the target is T2, human Akt2 kinase (kinase domain residues K146-R480) (Homo sapiens, UniProt P31751).
T2 construct: human Akt2 kinase domain residues K146-R480; made in house
T2 sequence (P31751 146-480): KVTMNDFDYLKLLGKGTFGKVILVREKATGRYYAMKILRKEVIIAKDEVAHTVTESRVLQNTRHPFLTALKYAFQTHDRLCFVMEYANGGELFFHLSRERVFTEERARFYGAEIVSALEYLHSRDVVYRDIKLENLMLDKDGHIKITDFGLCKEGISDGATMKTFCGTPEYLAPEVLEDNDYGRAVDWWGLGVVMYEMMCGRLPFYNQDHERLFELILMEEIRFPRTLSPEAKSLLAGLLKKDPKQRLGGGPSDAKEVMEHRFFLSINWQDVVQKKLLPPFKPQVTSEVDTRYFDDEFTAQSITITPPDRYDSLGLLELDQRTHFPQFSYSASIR
Description: Akt2 kinase assay, Luciferase-Coupled Chemiluminescent Kinase assay (LCCA). The note with it: 2 μM ATP, 10 nM Akt2; read-out: Akt-2 inhibition IC50. How it is done:
Kinase activity and compound inhibition are investigated using one or more of the three assay formats described below. The ATP concentrations for each assay are selected to be close to the Michaelis-Menten constant (KM) for each individual kinase. Dose-response experiments are performed at 10 different inhibitor concentrations in a 384-well plate format. The data are fitted to four-parameter equation (2) below; where Y is the observed signal, X is the inhibitor concentration, Min is the background signal in the absence of enzyme (0% enzyme activity), Max is the signal in the absence of inhibitor (100% enzyme activity), IC50 is the inhibitor concentration at 50% enzyme inhibition and H represents the empirical Hill's slope to measure the cooperativity. Typically H is close to unity. Y=Min+(Max−Min)/(1+(X/IC50)^H) Equation (2) p70S6 Kinase Assay
Biochemical activity of Akt2 kinase was assessed using a Luciferase-Coupled Chemiluminescent Kinase assay (LCCA) format. Kinase activity was measured as the percent ATP remaining following the kinase reaction. Remaining ATP was detected by luciferase-luciferin-coupled chemiluminescence. Specifically, the reaction was initiated by mixing test compounds, 2 μM ATP, 5 μM crosstide peptide and 10 nM Akt2 (baculovirus expressed human Akt2 kinase domain residues K146-R480) in a 20 uL assay buffer (20 mM Tris-HCL pH 7.5, 10 mM MgCl2, 0.03% Triton X-100, 1 mM DTT, 3 mM MnCl2). The mixture is incubated at ambient temperature for 2 hours after which 20 μL luciferase-luciferin mix is added and the chemiluminescent signal read using a Wallac Victor2 reader. The luciferase-luciferin mix consists of 50 mM HEPES, pH 7.8, 8.5 μg/mL oxalic acid (pH 7.8), 5 (or 50) mM DTT, 0.4% Triton X-100, 0.25 mg/mL coenzyme A, 63 uM AMP, 28 μg/mL luciferin and 40,000 units/mL luciferase.

The target in experiment [3] is T3, human p70S6 kinase (p70S6K, kinase domain residues 1-421, T412E mutation) (Homo sapiens, UniProt P23443, T412E).
T3 construct: human p70S6 kinase domainresidues 1-421, containing a T412E mutation; made in house
T3 sequence (P23443 1-421 T412E): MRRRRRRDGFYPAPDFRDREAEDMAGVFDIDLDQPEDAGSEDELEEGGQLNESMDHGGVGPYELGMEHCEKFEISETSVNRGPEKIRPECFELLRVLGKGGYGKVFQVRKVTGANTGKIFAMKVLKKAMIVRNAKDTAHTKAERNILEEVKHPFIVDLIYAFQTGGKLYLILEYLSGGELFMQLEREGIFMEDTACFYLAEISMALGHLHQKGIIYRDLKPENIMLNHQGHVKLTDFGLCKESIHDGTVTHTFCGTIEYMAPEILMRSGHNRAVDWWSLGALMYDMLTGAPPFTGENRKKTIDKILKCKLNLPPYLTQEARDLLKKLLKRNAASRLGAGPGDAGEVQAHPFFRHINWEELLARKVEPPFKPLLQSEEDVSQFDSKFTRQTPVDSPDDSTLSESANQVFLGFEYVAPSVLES
Description: p70S6 kinase assay, Luciferase-Coupled Chemiluminescent Kinase assay (LCCA). Conditions: 5 μM ATP, 12 nM p70S6K; read-out: p70S6K inhibition IC50. Put shortly:
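Baculovirus-expressed kinase domain (12 nM) reacted 2 h at ambient temperature with 5 μM ATP and 5 μM RRRLSSLRA peptide. Buffer was Tris pH 7.5 with MgCl2, MnCl2, DTT and Triton X-100. Remaining ATP was read by luciferase-luciferin chemiluminescence. IC50 came from 10-point dose-response with a four-parameter Hill fit.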

Molecules are shown by their SMILES. pIC50: −log10 of the molar value. Some results are limits rather than exact numbers.

`Brc1n[nH]c2ncnc(N3CCN(Cc4ccc5c(c4)OCO5)CC3)c12` [Entry 37, 4-[4-(1,3-benzodioxol-5-ylmethyl)piperazin-1-yl]-3-bromo-1H-pyrazolo[3,4-d]pyrimidine]: the figures for the negative logarithm of the IC50 (pIC50) in experiment [1], in experiment [2] and in experiment [3] were 5.70 to 6.30, less than 5.70 and greater than 7.30, respectively.
For `O=C(c1ccc(Cl)cc1)C1CCN(c2ncnc3[nH]nc(Br)c23)CC1` [Entry 38, [1-(3-bromo-1H-pyrazolo[3,4-d]pyrimidin-4-yl)piperidin-4-yl](4-chlorophenyl)methanone] the same measures were 5.70 to 6.30, less than 5.70 and greater than 7.30.
Taken in the same sequence, the figures for `Brc1n[nH]c2ncnc(N3CCN(Cc4ccc(Oc5ccccc5)cc4)CC3)c12` [Entry 39, 3-bromo-4-(4-{[4-(phenyloxy)phenyl]methyl}piperazin-1-yl)-1H-pyrazolo[3,4-d]pyrimidine] were less than 5.70, less than 5.70 and greater than 7.30.
For `CN(C)c1ccc(CN2CCN(c3ncnc4[nH]nc(Br)c34)CC2)cc1` [Entry 41, 4-{[4-(3-bromo-1H-pyrazolo[3,4-d]pyrimidin-4-yl)piperazin-1-yl]methyl}-N,N-dimethylaniline] the same measures were less than 5.70, less than 5.70 and greater than 7.30.
With `O=C(/C=C/c1ccccc1)N1CCN(c2ncnc3[nH]nc(Br)c23)CC1` [Entry 43, 3-bromo-4-{4-[(2E)-3-phenylprop-2-enoyl]piperazin-1-yl}-1H-pyrazolo[3,4-d]pyrimidine], the pIC50 is less than 5.70 in experiment [1], less than 5.70 in experiment [2] and greater than 7.30 in experiment [3].
Turning to `Brc1ccccc1CN1CCN(c2ncnc3[nH]nc(Br)c23)CC1` [Entry 45, 3-bromo-4-{4-[(2-bromophenyl)methyl]piperazin-1-yl}-1H-pyrazolo[3,4-d]pyrimidine], the pIC50 was less than 5.70 in experiment [1], less than 5.70 in experiment [2] and greater than 7.30 in experiment [3].
With `Clc1ccccc1CN1CCN(c2ncnc3[nH]nc(Br)c23)CC1` [Entry 46, 3-bromo-4-{4-[(2-chlorophenyl)methyl]piperazin-1-yl}-1H-pyrazolo[3,4-d]pyrimidine], the pIC50 is less than 5.70 in experiment [1], less than 5.70 in experiment [2] and greater than 7.30 in experiment [3].
For `Clc1ccc(CN2CCN(c3ncnc4[nH]nc(Br)c34)CC2)c(Cl)c1` [Entry 47, 3-bromo-4-{4-[(2,4-dichlorophenyl)methyl]piperazin-1-yl}-1H-pyrazolo[3,4-d]pyrimidine], the negative logarithm of the IC50 (pIC50) is 5.70 to 6.30 in experiment [1], less than 5.70 in experiment [2] and greater than 7.30 in experiment [3].
Taken in the same sequence, the figures for `Fc1ccc(CN2CCN(c3ncnc4[nH]nc(Br)c34)CC2)c(Cl)c1` [Entry 48, 3-bromo-4-{4-[(2-chloro-4-fluorophenyl)methyl]piperazin-1-yl}-1H-pyrazolo[3,4-d]pyrimidine] were less than 5.70, less than 5.70 and greater than 7.30.
Regarding `Brc1n[nH]c2ncnc(N3CCN(Cc4ccccc4)CC3)c12` [Entry 50, 3-bromo-4-[4-(phenylmethyl)piperazin-1-yl]-1H-pyrazolo[3,4-d]pyrimidine], the negative logarithm of the IC50 (pIC50) in experiment [1] is less than 5.70; in experiment [2], less than 5.70; in experiment [3], 6.30 to 7.30.
Consider `O=C(CN1CCN(c2ncnc3[nH]nc(Br)c23)CC1)Nc1ccccn1` [Entry 51, 2-[4-(3-bromo-1H-pyrazolo[3,4-d]pyrimidin-4-yl)piperazin-1-yl]-N-pyridin-2-ylacetamide], for which the values for the negative-log IC50 (pIC50) in experiment [1], in experiment [2] and in experiment [3] were less than 5.70, less than 5.70 and 6.30 to 7.30, respectively.
As to `Brc1n[nH]c2ncnc(N3CCN(Cc4ncc[nH]4)CC3)c12` [Entry 52, 3-bromo-4-[4-(1H-imidazol-2-ylmethyl)piperazin-1-yl]-1H-pyrazolo[3,4-d]pyrimidine], the negative-log IC50 (pIC50) in experiment [1] is less than 5.70; in experiment [2] it was less than 5.70; in experiment [3], 6.30 to 7.30.
`Brc1n[nH]c2ncnc(N3CCN(Cc4cccc(Oc5ccccc5)c4)CC3)c12` [Entry 53, 3-bromo-4-(4-{[3-(phenyloxy)phenyl]methyl}piperazin-1-yl)-1H-pyrazolo[3,4-d]pyrimidine]: the pIC50 in experiment [1] is less than 5.70; in experiment [2], less than 5.70; in experiment [3], 6.30 to 7.30.
`Cc1cccc(CN2CCN(c3ncnc4[nH]nc(Br)c34)CC2)c1` [Entry 54, 3-bromo-4-{4-[(3-methylphenyl)methyl]piperazin-1-yl}-1H-pyrazolo[3,4-d]pyrimidine]: the negative-log IC50 (pIC50) in experiment [1] was less than 5.70; in experiment [2], less than 5.70; in experiment [3], 6.30 to 7.30.
For the compound `N#Cc1cccc(CN2CCN(c3ncnc4[nH]nc(Br)c34)CC2)c1` [Entry 55, 3-{[4-(3-bromo-1H-pyrazolo[3,4-d]pyrimidin-4-yl)piperazin-1-yl]methyl}benzonitrile], the negative-log IC50 (pIC50) in experiment [1] was less than 5.70; in experiment [2], less than 5.70; in experiment [3] it was 6.30 to 7.30.
Turning to `Fc1cccc(Cl)c1CN1CCN(c2ncnc3[nH]nc(Br)c23)CC1` [Entry 56, 3-bromo-4-{4-[(2-chloro-6-fluorophenyl)methyl]piperazin-1-yl}-1H-pyrazolo[3,4-d]pyrimidine], the negative logarithm of the IC50 (pIC50) in experiment [1] was less than 5.70; in experiment [2], less than 5.70; in experiment [3], 6.30 to 7.30.
For `CC(c1ccccc1)N1CCN(c2ncnc3[nH]nc(Br)c23)CC1` (stereo not drawn) [Entry 57, 3-bromo-4-[4-(1-phenylethyl)piperazin-1-yl]-1H-pyrazolo[3,4-d]pyrimidine], the negative-log IC50 (pIC50) in experiment [1] is less than 5.70; in experiment [2] it was less than 5.70; in experiment [3] it was 6.30 to 7.30.
As for `Brc1n[nH]c2ncnc(N3CCN(Cc4ccncc4)CC3)c12` [Entry 58, 3-bromo-4-[4-(pyridin-4-ylmethyl)piperazin-1-yl]-1H-pyrazolo[3,4-d]pyrimidine], the figures for the pIC50 in experiment [1], in experiment [2] and in experiment [3] were less than 5.70, less than 5.70 and 6.30 to 7.30, respectively.
`Brc1n[nH]c2ncnc(N3CCN(Cc4cccnc4)CC3)c12` [Entry 60, 3-bromo-4-[4-(pyridin-3-ylmethyl)piperazin-1-yl]-1H-pyrazolo[3,4-d]pyrimidine]: the negative logarithm of the IC50 (pIC50) was less than 5.70 in experiment [1], less than 5.70 in experiment [2] and 6.30 to 7.30 in experiment [3].
As for `COc1ccc(CN2CCN(c3ncnc4[nH]nc(Br)c34)CC2)c(OC)c1OC` [Entry 61, 3-bromo-4-(4-{[2,3,4-tris(methyloxy)phenyl]methyl}piperazin-1-yl)-1H-pyrazolo[3,4-d]pyrimidine], the pIC50 in experiment [1] is less than 5.70; in experiment [2] it was less than 5.70; in experiment [3] it was 6.30 to 7.30.
Take `Brc1n[nH]c2ncnc(N3CCN(Cc4cccc(OCc5ccccc5)c4)CC3)c12` [Entry 62, 3-bromo-4-[4-({3-[(phenylmethyl)oxy]phenyl}methyl)piperazin-1-yl]-1H-pyrazolo[3,4-d]pyrimidine]: the pIC50 in experiment [1] is less than 5.70; in experiment [2] it was less than 5.70; in experiment [3] it was 6.30 to 7.30.
Take `Brc1n[nH]c2ncnc(N3CCN(Cc4cccc5ccccc45)CC3)c12` [Entry 63, 3-bromo-4-[4-(naphthalen-1-ylmethyl)piperazin-1-yl]-1H-pyrazolo[3,4-d]pyrimidine]: the pIC50 is less than 5.70 in experiment [1], less than 5.70 in experiment [2] and 6.30 to 7.30 in experiment [3].
